Data: patent US4868195A, “Novel enolamides, pharmaceutical compositions and methods of use thereof for activity as modulators of the arachidonic acid cascade” (Warner-Lambert Company, priority 1988, dated 1989)
Several values for one entry are separate records, joined by “and”; a condition that tells them apart may be missing. Equal values may be shown once.

molecular target: T1, leukotriene receptor (guinea pig lung membranes) (Cavia porcellus, UniProt Q2NNR5); test: Binding of ^3 H-Leukotriene D4 to Guinea Pig Lung Membranes (RBL); conditions: 0.2 nM ^3 H-LTD4, 60 min, 25° C.; read-out: Concentration (M) for 50.0 % Inhibition, IC (RBL)
T1 construct: 20 mg original tissue wet weight of guinea pig lung; tissue Kuiper Rabbit Farm, Gary, IN (animals); host or cells: guinea pig lung, crude membranes
T1 sequence (Q2NNR5 1-340): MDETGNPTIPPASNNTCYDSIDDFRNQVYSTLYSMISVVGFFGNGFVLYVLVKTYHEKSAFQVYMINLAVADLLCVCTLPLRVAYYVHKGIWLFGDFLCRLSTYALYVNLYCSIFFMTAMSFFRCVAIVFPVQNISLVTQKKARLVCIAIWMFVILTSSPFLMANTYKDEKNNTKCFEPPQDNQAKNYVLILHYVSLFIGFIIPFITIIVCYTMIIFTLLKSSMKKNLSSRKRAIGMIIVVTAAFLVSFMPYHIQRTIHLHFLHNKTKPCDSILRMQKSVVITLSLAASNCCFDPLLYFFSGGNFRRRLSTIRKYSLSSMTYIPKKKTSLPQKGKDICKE
Experimental: Additionally, the activity, of the compounds having the Formula I of the present invention is determined by the well known leukotriene receptor binding assay that is described by R. F. Bruns, W. J. Thomsen and T. A. Pugsley in Life Sciences, 33, 645 (1983) or the Herxheimer in vivo antiallergy test described in H. Herxheimer, J. Physiol. (London), Vol. 177, p. 251 (1952).
Binding of ^3 H-Leukotriene D4 to Guinea Pig Lung Membranes (RBL)
[14,15-^3 H]leukotriene D4 (^3 H-LTD4) (25 Ci/mmol and 40 Ci/mmol) is purchased from New England Nuclear. Unlabeled LTC4 is a gift of Ono Pharmaceuticals (Japan). LTC4, LTD4, and LTE4 are purchased as methyl esters from Paesel GmbH (Frankfurt, W. Germany). Concentrations of the Paesel leukotrienes are calculated from their absorbance at 280 nm. Leukotriene esters are saponified overnight under N2 in 3.3% potassium carbonate at room temperature. Tritiated leukotrienes are stored as received from New England Nuclear at -20° C. Ono LTC4 (5 μg/ml) is stored at -60° C. in phosphate buffer pH 6.8. Saponified Paesel leukotrienes are stored at -60° C. in 3.3% potassium carbonate (pH 9.0-9.5). Aliquots of leukotrienes are taken from stock solutions immediately after thawing, after which the stock solutions are immediately refrozen. 2-Amino-2-(hydroxymethyl)-1,3-propanediol (Tris) is Sigma pH 7.7 pre-set crystals, and dimethylsulfoxide is Aldrich Gold Label.
Preparation of crude lung membranes
Two pairs of lungs (1.3 g) from freshly sacrificed 300 g male guinea pigs (older animals gave substantially lower binding) from Kuiper Rabbit Farm, Gary, IN are disrupted with a Polytron PT 10 (setting 4) for 30 seconds in 20 ml ice-cold 50 mM Tris adjusted with HCl to pH 7.7 at 25° C. (Tris buffer), filtered through a single layer of gauze to remove connective tissue, and centrifuged at 50,000 xg for ten min. The pellet is resuspended by homogenization with a Polytron in 20 ml Tris buffer, centrifuged at 50,000 xg for ten min., resuspended, incubated at 37° C. for 30 minutes, and centrifuged again. The final pellet is resuspended in Tris buffer and either used fresh or stored at -70° C.
All incubations are in triplicate for 60 minutes at 25° C. in 12×75 mm polystyrene tubes containing 1 ml Tris buffer with 20 mg original tissue wet weight of guinea pig lung nmembranes, 0.2 nM ^3 H-LTD4 (6,000-11,000 cpm), 10 mM MgCl2, and 1% dimethylsulfoxide Leukotrienes are diluted in Tris buffer. All other test compounds dissolved at 10 mM in dimethylsulfoxide on the same day as the experiment, and diluted in dimethylsulfoxide to 100× the final incubation concentration. Control incubations receive an equal volume (10 μl) of dimethylsulfoxide; the resulting concentration of dimethylsulfoxide had no effect on binding. ^3 H-LTD4 is diluted to 2 nM in Tris buffer. The membrane suspension (20 mg/0.89 ml) contains sufficient MgCl2 to give 10 mM final concentration in the incubation. […] All additions are performed at 0° C. Immediately after the last addition, the incubation is initiated by agitating the rack of tubes on a vortex mixer and warming to 25° C. in a water bath. Tubes are vortexed at least once more during the incubation to ensure that the membranes remained suspended. Incubations are terminated after 60 minutes by filtering under reduced pressure through 25 mm Whatman GF/B filters followed by rapid washing three times with 4 ml of ice-cold Tris buffer. Filters are added to scintillation vials with 8 ml Formula 947 (New England Nuclear), left overnight, shaken, and the radioactivity counted in a scintillation counter (efficiency 40%). Nonspecific binding, defined as binding of ^3 H-LTD4 in the presence of 100 nM LTC4, is 300-500 cpm for all lots of ^3 H-LTD4. Binding to the filters in the absence of tissue is about 100 cpm, and is not affected by unlabeled LTC4. Specific binding, defined as total binding minus nonspecific binding, varied considerably from lot to lot of ^3 H-LTD4. […]

With `COc1cccc(CCc2ccc(NC(=O)C3=C(O)c4ccccc4S(=O)(=O)C3)cc2)c1OC` [Example 28, N-[4-[2-(2,3-Dimethoxyphenyl)ethyl]phenyl]-4-hydroxy-2H-1-benzothiopyran-3-carboxamide, 1,1-dioxide] the IC50 was 5e-05 M and 3.56e-05 M.
With `O=C(Nc1ccc(CCc2cccc(C(F)(F)F)c2)cc1)C1=C(O)c2ccccc2S(=O)(=O)C1` [Example 62, N-[4-[2-(3-Trifluoromethylphenyl)ethyl]phenyl]-4-hydroxy-2H-1-benzothiopyran-3-carboxamide, 1,1-dioxide] the IC50 was 1e-05 M and 5.95e-06 M and 4.98e-06 M.
With `O=C(Nc1ccc(CCc2cc(C(F)(F)F)cc(C(F)(F)F)c2)cc1)C1=C(O)c2ccccc2S(=O)(=O)C1` [Example 63, N-[4-[2-[3,5-bis-Trifluoromethyl(phenyl)]ethyl]phenyl]-4-hydroxy-2H-1-benzothiopyran-3-carboxamide, 1,1-dioxide] the IC50 was 4.42e-06 M and 3.11e-06 M.
With `O=C(Nc1ccc(CCc2ccc(Cl)c(Cl)c2)cc1)c1sc2ccccc2c1O` [Example 144] the IC50 was 5e-06 M and 6.43e-06 M and 3.28e-06 M.

In order of falling IC50:
1. O=C(Nc1ccc(CCc2cc(C(F)(F)F)cc(C(F)(F)F)c2)cc1)c1sc2ccccc2c1O [Example 148, Benzo[b]thiophene-2-carboxamide, N-[4-[2-[3,5-bis(trifluoromethyl)phenyl]ethyl]phenyl]-3-hydroxy]  0.0001 M
2. O=C(Nc1ccc(CCc2ccc(O)cc2O)cc1)C1=C(O)c2ccccc2S(=O)(=O)C1 [Example 31, N-[4-[2-(2,4-Dihydroxyphenyl)ethyl]phenyl]-4-hydroxy-2H-1-benzothiopyran-3-carboxamide, 1,1-dioxide]  5.2e-05 M
3. COc1cc(CCc2ccc(NC(=O)C3=C(O)c4ccccc4S(=O)(=O)C3)cc2)cc(OC)c1OC [Example 35]  4.23e-05 M
4. O=C(Nc1ccc(CCc2cccc(O)c2O)cc1)C1CS(=O)(=O)c2ccccc2C1=O (centres unmarked) [Example 29, N-[4-[2-(2,3-Dihydroxyphenyl)ethyl]phenyl]-3,4-dihydro-4-oxo-2H-1-benzothiopyran-3-carboxamide, 1,1-dioxide]  3.92e-05 M
5. Nc1ccc(C=Cc2ccc(NC(=O)C3CS(=O)(=O)c4ccccc4C3=O)cc2)cc1 (centres unmarked) [Example 66, 2H-1-Benzothiopyran-3-carboxamide, N-[4-[2-(4-aminophenyl)ethenyl]phenyl]-3,4-dihydro-4-oxo-, 1,1-dioxide]  3.15e-05 M
6. COc1ccc(OC)c(CCc2ccc(NC(=O)C3=C(O)c4ccccc4S(=O)(=O)C3)cc2)c1 [Example 32, N-[4-[2-(2,5-Dimethoxyphenyl)ethyl]phenyl]-4-hydroxy-2H-1-benzothiopyran-3-carboxamide, 1,1-dioxide]  2.35e-05 M
7. COc1ccc(CCc2ccc(NC(=O)C3=C(O)c4ccccc4S(=O)(=O)C3)cc2)c(OC)c1 [Example 30, N-[4-[2-(2,4-Dimethoxyphenyl)ethyl]phenyl]-4-hydroxy-2H-1-benzothiopyran-3-carboxamide, 1,1-dioxide]  2.26e-05 M
8. O=C(Nc1ccc(CCc2ccc(Cl)c(Cl)c2)cc1)C(=O)C1=C(O)c2ccccc2S(=O)(=O)C1 [Example 69, 2H-1-Benzothiopyran-3-acetamide, N-[4-[2-(3,4-dichlorophenyl)ethyl]phenyl]-4-hydroxy-α-oxo-, 1,1-dioxide]  2.04e-05 M
9. COc1cc(CCc2ccc(NC(=O)C3=C(O)c4ccccc4S(=O)(=O)C3)cc2)cc(OC)c1 [Example 34, N-[4-[2-(3,5-Dimethoxyphenyl)ethyl]phenyl]-4-hydroxy-2H-1-benzothiopyran-3-carboxamide, 1,1-dioxide]  1.58e-05 M
10. CC(C)(C)c1cc(CCc2ccc(NC(=O)C3=C(O)c4ccccc4S(=O)(=O)C3)cc2)cc(C(C)(C)C)c1O [Example 77, 2H-1-Benzothiopyran-3-carboxamide, N-[4-[2-[3,5-bis(1,1-dimethylethyl)-4-hydroxyphenyl]ethyl]phenyl]-4-hydroxy-, 1,1-dioxide]  5.96e-06 M
11. O=C(Nc1ccc(CCc2ccc(Oc3ccccc3)cc2)cc1)C1=C(O)c2ccccc2S(=O)(=O)C1 [Example 75, 2H-1-Benzothiopyran-3-carboxamide, 4-hydroxy-N-[4-[2-(4-phenoxyphenyl)ethyl]phenyl]-, 1,1-dioxide]  5.58e-06 M
12. O=C(Nc1ccc(CCc2cccc(Cl)c2)cc1)C1=C(O)c2ccccc2S(=O)(=O)C1 [Example 68, 2H-1-Benzothiopyran-3-carboxamide, N-[4-[2-(3-chlorophenyl)ethyl]phenyl]-4-hydroxy-, 1,1-dioxide]  4.99e-06 M
13. COc1ccc(CCc2ccc(NC(=O)C(=O)c3sc4ccccc4c3O)cc2)cc1OC [Example 131, N-[4-[2-(3,4-Dimethoxyphenyl)ethyl]phenyl]-3-hydroxy-α-oxo-benzo[b]thiophene-2-acetamide]  4.4e-06 M
